# Literature values as cited in paper PMC10723152 (Proceedings of the National Academy of Sciences of the …, 2023).
# Test system: cynomolgus macaques
# Details: adult male cynomolgus macaques, 2 Gy sublethal whole-body irradiation
substance,measurement,value
"recombinant hGH: recombinant human Growth Hormone, biologic compared from the authors' previous work",hematopoietic recovery,enhanced hematopoietic recovery
